# Data: patent US20080167248A1, “Anti-Aging Effects Of Substance P” (IMMUNEREGEN BIOSCIENCES, INC., priority 2004, published 2008)
# Columns and labels:
# Assay type in all cases: in vivo
# [1] = test system: human; experiment: running speed (150M build-ups, timed 200M run)
# Description: After taking the analog, I “felt” much faster in my 150M build-ups than previously.
# [2] = test system: human; experiment: short-term memory; settings: since beginning to apply the analog; names and telephone numbers
# Description: I can remember people's names and telephone numbers more readily.
# [3] = test system: human; experiment: residual muscle pain after a very hard workout
# Description: I ran five miles with four 150M build-ups and threw a 6 Kg shot-put for the first time. This workout was followed by a session of weightlifting. Before I began treatment with the substance P analog I would take Advil™ at least twice on the day of the work out to prevent muscle pain.
# [4] = test system: human; experiment: visual accommodation (adjustment time between long and near vision)
# [5] = test system: scalp hair of a human; experiment: hair styling gel with the analog applied daily to the scalp, hair colour; settings: 0.001 mg/ml in hair styling gel, approximately 2 ml daily to scalp, after a few months; self-observation
# Description: [Sar9,Met (02)11 ]-substance P was formulated in a hair styling gel at a concentration of 0.001 mg/ml and approximately 2 ml were applied daily to my scalp. […] I estimate my head of hair to be about 40% darker. This observation is consistent with results observed on radiation-exposed mice that had been given the substance P analog.
# [6] = test system: radiation-exposed mice; experiment: hair regrowth in radiation-exposed mice given the substance P analog
# [7] = test system: human; experiment: sleep pattern
# Description: I have 6 hours sleep on a regular basis. Approximately a week ago, after taking the analog daily for 2 weeks, I was getting 5 hours sleep.
substance,measurement,setting,value
"[Sar9,Met (02)11 ]-substance P",perceived speed in 150M build-ups,"[1]; after taking the analog, versus previously",much faster
same,time in a 200M run,[1]; timed run,significantly improved
same,memory problems,[2],less “middle-aged” memory problems
same,reduction in residual muscle pain,"[3]; after a very hard workout, self-observation",very large reduction
same,tightness or soreness in right arm/shoulder from throwing the shot,[3]; after taking the analog,nor did I experience tightness or soreness
same,muscle pain after the hard workout,"[3]; five mile run, four 150M build-ups, 6 Kg shot-put, weightlifting, after taking the analog",no muscle pain
same,adjustment time between long and near vision after 97 days,[4]; after 97 days of administration,little adjustment time
same,adjustment time between long and near vision,[4]; during administration,shorter and continues to diminish
same,head of hair darker (estimate),[5],about 40%
same,overall color of hair,[5],becoming more like my original brown color
same,regrowth of hair lost upon radiation exposure,[6]; radiation-exposed mice given the substance P analog,regrew hair that was lost upon radiation exposure
same,colour of new hair growth,"[6]; radiation-exposed mice, versus non-exposed area",darker than in the non-exposed area
same,"quality of sleep, later",[7]; about a week later (now),the vivid dreams and less waking up continue
same,"hours of sleep per night, later","[7]; about a week later (now), reverted",six
same,quality of sleep,[7]; after taking the analog daily for 2 weeks,deeper with more vivid dreams and less “waking up.”
same,hours of sleep,"[7]; after taking the analog daily for 2 weeks, regular basis 6 hours",5 h
